Data reported in patent publication US20260285855A1, “HETEROARYL DERIVATIVES AS DDRS INHIBITORS” (CHIESI FARMACEUTICI S.P.A., priority 2023, published 2026).

Tests used:
DDR2 = molecular target: T1, DDR2 (Homo sapiens, UniProt Q16832); assay: LanthaScreen Europium Kinase Binding assay, DDR2; details: 5 nM DDR2, 10 nM Kinase Tracer 178, 1 h at rt; Ki from IC50 by Cheng-Prusoff; read-out: Ki DDR2
T1 construct: purchased Life Technologies
T1 sequence (Q16832 22-855): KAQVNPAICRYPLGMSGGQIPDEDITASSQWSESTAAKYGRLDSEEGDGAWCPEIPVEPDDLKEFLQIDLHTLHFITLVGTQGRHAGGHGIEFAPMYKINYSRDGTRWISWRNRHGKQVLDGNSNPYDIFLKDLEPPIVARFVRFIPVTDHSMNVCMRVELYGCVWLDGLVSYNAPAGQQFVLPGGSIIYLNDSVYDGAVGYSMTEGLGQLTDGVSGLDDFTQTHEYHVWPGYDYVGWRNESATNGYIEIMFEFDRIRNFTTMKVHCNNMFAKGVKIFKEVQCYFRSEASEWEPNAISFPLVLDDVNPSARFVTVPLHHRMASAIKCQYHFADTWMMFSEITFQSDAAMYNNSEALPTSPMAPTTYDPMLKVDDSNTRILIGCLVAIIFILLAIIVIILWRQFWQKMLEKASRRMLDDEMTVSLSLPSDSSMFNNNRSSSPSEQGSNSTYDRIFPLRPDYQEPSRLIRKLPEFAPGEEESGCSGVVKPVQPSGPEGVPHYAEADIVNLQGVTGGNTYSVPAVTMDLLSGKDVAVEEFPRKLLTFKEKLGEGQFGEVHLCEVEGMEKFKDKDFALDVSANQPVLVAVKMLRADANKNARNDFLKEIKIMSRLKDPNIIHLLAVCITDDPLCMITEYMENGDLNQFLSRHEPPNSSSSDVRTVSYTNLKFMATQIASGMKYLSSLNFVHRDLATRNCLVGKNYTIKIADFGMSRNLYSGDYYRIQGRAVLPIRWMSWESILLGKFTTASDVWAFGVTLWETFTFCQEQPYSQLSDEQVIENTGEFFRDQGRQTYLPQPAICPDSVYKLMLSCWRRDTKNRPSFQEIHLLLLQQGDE
Description: (§1) DDR1 and DDR2 binding assays were performed using Life Technologies LanthaScreen™ Europium Kinase Binding assay. […] IC50 values were determined in GraphPad Prism 7.0 software, using 4 parameter model: log (inhibitor) vs. response. IC50 values were converted in Ki using the Cheng-Prusoff equation (Ki-IC50/(1+ [Tracer]/Kd).

DDR1 = molecular target: T2, DDR1 (Homo sapiens, UniProt Q08345); assay: LanthaScreen Europium Kinase Binding assay, DDR1; details: 5 nM DDR1, 20 nM Kinase Tracer 178, 1 h at rt; Ki from IC50 by Cheng-Prusoff; read-out: Ki DDR1
T2 construct: purchased Carna Biosciences
T2 sequence (Q08345 19-913): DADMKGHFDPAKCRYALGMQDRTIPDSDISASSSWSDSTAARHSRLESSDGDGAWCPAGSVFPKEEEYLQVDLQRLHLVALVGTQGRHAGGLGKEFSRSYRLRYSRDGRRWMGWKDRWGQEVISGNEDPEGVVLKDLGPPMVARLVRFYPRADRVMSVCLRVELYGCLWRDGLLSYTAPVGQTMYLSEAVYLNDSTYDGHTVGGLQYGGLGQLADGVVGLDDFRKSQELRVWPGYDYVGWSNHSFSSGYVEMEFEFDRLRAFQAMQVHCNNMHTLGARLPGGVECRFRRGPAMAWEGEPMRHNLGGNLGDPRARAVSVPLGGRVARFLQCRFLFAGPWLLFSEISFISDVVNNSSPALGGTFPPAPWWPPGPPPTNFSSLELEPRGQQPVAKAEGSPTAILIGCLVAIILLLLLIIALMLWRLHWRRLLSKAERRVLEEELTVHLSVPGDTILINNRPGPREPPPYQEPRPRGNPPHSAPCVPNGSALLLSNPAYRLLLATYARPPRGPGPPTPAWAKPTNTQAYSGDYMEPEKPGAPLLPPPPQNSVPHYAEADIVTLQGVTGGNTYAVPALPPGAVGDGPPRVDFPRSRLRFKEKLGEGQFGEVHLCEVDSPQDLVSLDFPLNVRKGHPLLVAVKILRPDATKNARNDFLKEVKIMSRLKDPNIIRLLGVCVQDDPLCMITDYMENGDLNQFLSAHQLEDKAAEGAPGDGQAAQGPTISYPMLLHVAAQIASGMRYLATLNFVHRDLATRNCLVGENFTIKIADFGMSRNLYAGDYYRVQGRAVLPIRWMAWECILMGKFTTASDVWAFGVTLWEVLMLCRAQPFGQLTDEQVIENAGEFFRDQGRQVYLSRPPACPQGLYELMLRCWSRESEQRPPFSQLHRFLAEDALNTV
Description: as §1

Structure (SMILES)	Ki (DDR2) [nM]	Ki (DDR1) [nM]
CN(C(=O)Nc1cccc(C(F)(F)F)c1)C1CC2(C1)CN(C(=O)c1ccnc3[nH]ncc13)C2 [Example 128, 1-(2-(1H-pyrazolo[3,4-b]pyridine-4-carbonyl)-2-azaspiro[3.3]heptan-6-yl)-1-methyl-3-(3-(trifluoromethyl)phenyl)urea]	5 to 25	< 5
CN(C(=O)Nc1cc(C(F)(F)F)ccn1)C1CC2(C1)CN(C(=O)c1cnn3ccn(C)c13)C2 [Example 129, 1-methyl-1-(2-(1-methyl-1H-imidazo[1,2-b]pyrazole-7-carbonyl)-2-azaspiro[3.3]heptan-6-yl)-3-(4-(trifluoromethyl)pyridin-2-yl)urea]	5 to 25	< 5
CN(C(=O)Nc1cncc(C(F)(F)F)c1)C1CC2(C1)CN(C(=O)c1ncnc3ccsc13)C2 [Example 130, 1-methyl-1-(2-(thieno[3,2-d]pyrimidine-4-carbonyl)-2-azaspiro[3.3]heptan-6-yl)-3-(5-(trifluoromethyl)pyridin-3-yl)urea]	5 to 25	< 5
CN(C(=O)Nc1ccc(F)c(C(F)(F)F)c1)C1CC2(C1)CN(C(=O)c1cnn3ccn(C)c13)C2 [Example 131, 3-(4-fluoro-3-(trifluoromethyl)phenyl)-1-methyl-1-(2-(1-methyl-1H-imidazo[1,2-b]pyrazole-7-carbonyl)-2-azaspiro[3.3]heptan-6-yl)urea]	5 to 25	< 5
CN(C(=O)Nc1cc(OC(F)(F)F)ccc1F)C1CC2(C1)CN(C(=O)c1cnn3ccn(C)c13)C2 [Example 132, 3-(2-fluoro-5-(trifluoromethoxy)phenyl)-1-methyl-1-(2-(1-methyl-1H-imidazo[1,2-b]pyrazole-7-carbonyl)-2-azaspiro[3.3]heptan-6-yl)urea]	5 to 25	< 5
O=C(Nc1cccc(C(F)(F)F)c1)NC1CC2(C1)CN(c1cnc3[nH]ncc3c1)C2 [Example 138, 1-(2-(1H-pyrazolo[3,4-b]pyridine-5-yl)-2-azaspiro[3.3]heptan-6-yl)-3-(3-(trifluoromethyl)phenyl)urea]	< 5	< 5
COc1ccc(OC(F)(F)F)cc1NC(=O)CC1CC2(C1)CN(C(=O)c1ccnc3ccsc13)C2 [Example 139, N-(2-methoxy-5-(trifluoromethoxy)phenyl)-2-(2-(thieno[3,2-b]pyridine-7-carbonyl)-2-azaspiro[3.3]heptan-6-yl)acetamide]	< 5	< 5
COc1ccc(OC(F)(F)F)cc1NC(=O)CC1CC2(C1)CN(C(=O)c1cnn3ccn(C)c13)C2 [Example 142, N-(2-methoxy-5-(trifluoromethoxy)phenyl)-2-(2-(1-methyl-1H-imidazo[1,2-b]pyrazole-7-carbonyl)-2-azaspiro[3.3]heptan-6-yl)acetamide]	< 5	< 5
COc1ccc(OC(F)(F)F)cc1NC(=O)OC1CC2(C1)CN(C(=O)c1cnn3ccn(C)c13)C2 [Example 144, 2-(1-methyl-1H-imidazo[1,2-b]pyrazole-7-carbonyl)-2-azaspiro[3.3]heptan-6-yl(2-methoxy-5-(trifluoromethoxy)phenyl)carba-mate]	5 to 25	< 5
O=C(Nc1cc(C(F)(F)F)ccn1)NC1CC2(C1)CN(C(=O)c1ccnc3[nH]ncc13)C2 [Example 145, 1-(2-(1H-pyrazolo[3,4-b]pyridine-4-carbonyl)-2-azaspiro[3.3]heptan-6-yl)-3-(4-(trifluoromethyl)pyridin-2-yl)urea]	5 to 25	< 5
O=C(Nc1cccc(C(F)(F)F)c1)NC1CC2(C1)CN(c1nccn3cncc13)C2 [Example 149, 1-(2-(imidazo[1,5-a]pyrazin-8-yl)-2-azaspiro[3.3]heptan-6-yl)-3-(3-(trifluoromethyl)phenyl)urea]	< 5	< 5
CN(C(=O)Nc1cc(CC(F)(F)F)ccn1)C1CC2(C1)CN(C(=O)c1cnn3ccn(C)c13)C2 [Example 150, 1-methyl-1-(2-(1-methyl-1H-imidazo[1,2-b]pyrazole-7-carbonyl)-2-azaspiro[3.3]heptan-6-yl)-3-(4-(2,2,2-trifluoroethyl)pyridin-2-yl)urea]	5 to 25	< 5
COc1ccc(CC(F)(F)F)cc1NC(=O)NC1CC2(C1)CN(C(=O)c1cnn3ccn(C)c13)C2 [Example 152, 1-(2-methoxy-5-(2,2,2-trifluoroethyl)phenyl)-3-(2-(1-methyl-1H-imidazo[1,2-b]pyrazole-7-carbonyl)-2-azaspiro[3.3]heptan-6-yl)urea]	5 to 25	< 5

Further lines, results first:

Ki (DDR2) [nM]	Ki (DDR1) [nM]	Structure (SMILES)
< 5	< 5	Cn1ccn2ncc(C(=O)N3CC4(CC(NC(=O)Nc5cccc(C(F)(F)C(F)(F)F)c5)C4)C3)c12 [Example 127, 1-(2-(1-methyl-1H-imidazo[1,2-b]pyrazole-7-carbonyl)-2-azaspiro[3.3]heptan-6-yl)-3-(3-(perfluoroethyl)phenyl)urea]
5 to 25	< 5	CN(C(=O)Nc1cccc(C(F)(F)F)c1)C1CC2(C1)CN(C(=O)c1cnn3ccsc13)C2 [Example 133, 1-methyl-1-(2-(pyrazolo[5,1-b]thiazole-7-carbonyl)-2-azaspiro[3.3]heptan-6-yl)-3-(3-(trifluoromethyl)phenyl)urea]
5 to 25	< 5	CN(C(=O)Nc1cccc(C(F)(F)F)c1)C1CC2(C1)CN(C(=O)c1cnn3ccn(C)c13)C2 [Example 134, 1-methyl-1-(2-(1-methyl-1H-imidazo[1,2-b]pyrazole-7-carbonyl)-2-azaspiro[3.3]heptan-6-yl)-3-(3-(trifluoromethyl)phenyl)urea]
5 to 25	< 5	O=C(Nc1cccc(C(F)(F)F)c1)NC1CC2(C1)CN(C(=O)c1cnn3c1SCC3)C2 [Example 135, 1-(2-(2,3-dihydropyrazolo[5,1-b]thiazole-7-carbonyl)-2-azaspiro[3.3]heptan-6-yl)-3-(3-(trifluoromethyl)phenyl)urea]
5 to 25	< 5	O=C(Nc1cccc(C(F)(F)F)c1)NC1CC2(C1)CN(C(=O)c1cnn3c1SCCC3)C2 [Example 136, 1-(2-(6,7-dihydro-5H-pyrazolo[5,1-b][1,3]thiazine-3-carbonyl)-2-azaspiro[3.3]heptan-6-yl)-3-(3-(trifluoromethyl)phenyl)urea]
< 5	< 5	O=C(Nc1cccc(C(F)(F)F)c1)NC1CC2(C1)CN(C(=O)c1ccnc3ccsc13)C2 [Example 137, 1-(2-(thieno[3,2-b]pyridine-7-carbonyl)-2-azaspiro[3.3]heptan-6-yl)-3-(3-(trifluoromethyl)phenyl)urea]
< 5	< 5	O=C(CC1CC2(C1)CN(C(=O)c1ccnc3ccsc13)C2)Nc1cccc(C(F)(F)F)c1 [Example 140, 2-(2-(thieno[3,2-b]pyridine-7-carbonyl)-2-azaspiro[3.3]heptan-6-yl)-N-(3-(trifluoromethyl)phenyl)acetamide]
< 5	< 5	Cn1ccn2ncc(C(=O)N3CC4(CC(CC(=O)Nc5cccc(C(F)(F)F)c5)C4)C3)c12 [Example 141, 2-(2-(1-methyl-1H-imidazo[1,2-b]pyrazole-7-carbonyl)-2-azaspiro[3.3]heptan-6-yl)-N-(3-(trifluoromethyl)phenyl)acetamide]
< 5	< 5	Cn1ccn2ncc(C(=O)N3CC4(CC(OC(=O)Nc5cccc(C(F)(F)F)c5)C4)C3)c12 [Example 143, 2-(1-methyl-1H-imidazo[1,2-b]pyrazole-7-carbonyl)-2-azaspiro[3.3]heptan-6-yl(3-(trifluoromethyl)phenyl)carbamate]
5 to 25	< 5	Cn1ccn2ncc(C(=O)N3CC4(CC(OC(=O)Nc5cncc(C(F)(F)F)c5)C4)C3)c12 [Example 146, 2-(1-methyl-1H-imidazo[1,2-b]pyrazole-7-carbonyl)-2-azaspiro[3.3]heptan-6-yl(5-(trifluoromethyl)pyridin-3-yl)carbamate]
< 5	< 5	O=C(Nc1cccc(C(F)(F)F)c1)OC1CC2(C1)CN(C(=O)c1cnn3ccsc13)C2 [Example 147, 2-(pyrazolo[5,1-b]thiazole-7-carbonyl)-2-azaspiro[3.3]heptan-6-yl(3-(trifluoromethyl)phenyl)carbamate]
5 to 25	< 5	Cc1ccc(OC(F)(F)F)cc1NC(=O)N(C)C1CC2(C1)CN(C(=O)c1cnn3ccsc13)C2 [Example 151, 1-methyl-3-(2-methyl-5-(trifluoromethoxy)phenyl)-1-(2-(pyrazolo[5,1-b]thiazole-7-carbonyl)-2-azaspiro[3.3]heptan-6-yl)urea]
